These results are taken from US20120142731A1, “METHODS OF INHIBITING VIRAL INFECTION” (Functional Genetics, Inc., priority 2007, published 2012).

Series [1] concerns HCV. Briefly: Viral release assay, HCV from Huh1 cells.
Series [2] deals with HBV. In words: HBV primary assay in HepG2 cells (virion DNA). The class given is cell-based, Hepatitis B virus. The following applies: blinded NIAID study.
The subject of series [3] is Venezuelan Equine Encephalomyelitis (VEE). The format is cell-based. The note with it: 25 uM, administered 3 days post-infection.
The conditions of series [4]: mammalian models; oral, IP, IV administration; cited from earlier work.
The conditions of series [5]: 28 day course of administration; cited from earlier work.
In series [6] the test system is HCV. The class given is cell-based, Hepatitis C virus.
Series [7] can be described thus: in vitro. The note with it: African green monkey.
The subject of series [8] is N5A of HCV. The class given is cell-based, Hepatitis C virus. The note with it: 2.5 uM.
In series [9] the test system is HIV-1. Briefly: HIV-1 luciferase assay in infected MT-4 cells.
Series [10] concerns replicon formation. The class given is cell-based.
The test system of series [11] is PRRS virus. In words: PRRS inhibition in primary porcine lung alveolar macrophages. The format is cell-based, porcine reproductive and respiratory syndrome (PRRS) virus. The following applies: administration 72 hours post infection. The text has this: As noted above, important mammalian hosts treatable by this family of compounds include not only humans, but veterinarily and commercially important animals. Although monkeys, dogs, cats, mice, rats, horses, rabbits, cattle, sheep and goats are all important hosts to be treated for viral infection, pigs may be the dominant commercial animal, worldwide. The United States Department of Agriculture has characterized PRRS virus as a significant, worldwide, agricultural concern related to animal health and causes large economic losses to producers, and labeled a biosecurity threat. (Project 2008-2017).

Series [12] relates to HBV. Briefly: Viral release assay, HBV from Huh1 cells. The format is cell-based, Hepatitis B virus.
The test system of series [13] is cowpox. In words: organism not typed. The class given is cell-based. The note with it: Vero.
Series [14] is described as follows: Stability to light. The format is physicochemical. The source says: R24 is subject to straight forward synthesis. […] The range of carriers available, is therefore, quite large. As a consequence, the compositions and methods of this invention embrace the FGI-104 compounds as neat solids, as pharmaceutically suitable preparations, in a pharmaceutically acceptable carrier of a variety of types. Compositions of the present invention may further comprise a pharmaceutical composition comprising a therapeutically effective amount of any of the small molecules (or combinations of small molecules) described above together with other materials, such as a suitable carrier, excipients, etc., for administration to a human or animal experiencing a viral infection or at risk of a viral infection. Such pharmaceutical compositions may be in solid, gel or liquid form and may be administered as appropriate to an individual IV, IM, IP or parenterally, topically, subcutaneously, orally, or through mucosal surfaces and routes (including, for example, rectal and vaginal suppositories). The exact dosage corresponding to a therapeutically effective amount will vary from mammal to mammal and virus to virus. […]

Series [15] has as its system malaria. The following applies: cited from earlier work.

The term EC50 denotes the concentration needed to bring the measured effect to its halfway point.

As for `CC(C)(C)NCc1cc(Nc2ccnc3cc(Cl)ccc23)cc(-c2ccc(Cl)cc2)c1O` [Compound R24, 4′-chloro-5-[(7-chloro-4-quinolinyl)amino]-3-(1,1-dimethylethylamino)methyl [1,1′-biphenyl]-2-ol], the preventing viral release result in series [1] and in series [12] was “effective in preventing viral release” throughout. In addition, the “activity as measured by virion DNA” value in series [2] was “high level of activity”. In addition, the “inhibition of VEE” value in [3] is on record as “dramatic inhibition”. For the same compound, the tolerability result in [4] was “well tolerated”. The chromosomal instability entry in series [5] is given as “not to induce significant chromosomal instability”. The “inhibition of the virus (luciferase signal)” value in series [6] is given as 100%. In addition, the CC50 in series [7] is greater than 25 µM. Also, in [8], the “signal protein N5A of HCV in protein blot” value is recorded as “completely missing”. In addition, the EC50 came out at 8.5 µM in series [9] (Human immunodeficiency virus 1, MT4, 72 h) and 0.25 µM in series [13]. In addition, the luciferase detection entry in series [9] (MT-4 cells, relatively low dose, 72 hours post infection) is recorded as “effective zero”. The “inhibition of replicon formation” value in [10] was “does little to inhibit replicon formation”. For the same compound, the “effectiveness as reflected by the EC90 value” in series [11] is given as “spectacular effectiveness”. In series [14], the stability to light result is recorded as “instability to light”.

`CC(C)(C)NCc1cc(Nc2ccnc3cc(Cl)ccc23)cc(-c2ccc(Cl)cc2)c1O.Cl.Cl` [WR-228,258 2HCl, 4′-chloro-5-[(7-chloro-4-quinolinyl)amino]-3-(1,1-dimethylethylamino)methyl[1,1′-biphenyl]-2-ol dihydrochloride]: in [4], the tolerability result is given as “well tolerated”. The “efficacy against chloroquinoline-resistant malarial strains” value in [15] (chloroquinoline-resistant strains) is “not effective”. Moreover, in series [15] (compared with chloroquinoline), the “efficacy against the parasite based disease (malaria)” value is recorded as “effective against the parasite based disease at about the same level as the dominant treatment”.
